Among the data in patent US20230023559A1, “ARYLMETHYLENE HETEROCYCLIC COMPOUNDS AS KV1.3 POTASSIUM SHAKER CHANNEL BLOCKERS” (D. E. Shaw Research, LLC, priority 2019, published 2023) are IC50 values, retold here.

Structures are written as SMILES.

The target of one assay is hERG channel (Homo sapiens, UniProt Q12809). In words: hERG electrophysiology, automated whole-cell patch clamp (Patchliner). In general terms: Block of hERG is tested as a sign of cardiac risk.
The target in the next assay is T1, Kv1.3 potassium channel (Homo sapiens, UniProt P22001).
T1 construct: expressed in transfected cells
T1 sequence (P22001 whole entry): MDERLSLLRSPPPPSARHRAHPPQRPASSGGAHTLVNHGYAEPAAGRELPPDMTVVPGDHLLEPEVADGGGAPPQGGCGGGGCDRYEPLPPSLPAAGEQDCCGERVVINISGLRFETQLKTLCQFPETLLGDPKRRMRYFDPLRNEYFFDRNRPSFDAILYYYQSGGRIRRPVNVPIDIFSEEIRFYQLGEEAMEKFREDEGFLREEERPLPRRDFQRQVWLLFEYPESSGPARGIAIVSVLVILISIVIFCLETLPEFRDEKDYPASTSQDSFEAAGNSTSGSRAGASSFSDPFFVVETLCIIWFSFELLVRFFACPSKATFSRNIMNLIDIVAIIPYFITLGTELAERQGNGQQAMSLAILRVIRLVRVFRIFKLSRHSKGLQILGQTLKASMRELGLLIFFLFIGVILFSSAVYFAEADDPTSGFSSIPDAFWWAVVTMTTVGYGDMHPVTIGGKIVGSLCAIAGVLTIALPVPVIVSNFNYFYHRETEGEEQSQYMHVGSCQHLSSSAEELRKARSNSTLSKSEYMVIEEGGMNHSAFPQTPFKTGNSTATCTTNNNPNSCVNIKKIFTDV
Put plainly: Kv1.3 potassium channel blocker activity, automated whole-cell patch clamp (Patchliner). It is filed as cell-based. The note with it: CHO-K1 cells stably expressing Kv1.3; whole cell current inhibition; read-out: Kv1.3_IC50. The gist of the method:
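CHO-K1 cells stably expressing Kv1.3, automated whole-cell patch clamp. Currents evoked by 100 ms steps from −90 mV holding to +40 mV at 0.1 Hz, sampled at 10 kHz unfiltered, P/4 leak subtraction; peak current inhibition measured, compound incubation ≤10 s between pulse trains.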
On the technique in general: The patch-clamp technique gives a direct electrical read-out from membranes.

Chain of hERG channel (Q12809 whole entry): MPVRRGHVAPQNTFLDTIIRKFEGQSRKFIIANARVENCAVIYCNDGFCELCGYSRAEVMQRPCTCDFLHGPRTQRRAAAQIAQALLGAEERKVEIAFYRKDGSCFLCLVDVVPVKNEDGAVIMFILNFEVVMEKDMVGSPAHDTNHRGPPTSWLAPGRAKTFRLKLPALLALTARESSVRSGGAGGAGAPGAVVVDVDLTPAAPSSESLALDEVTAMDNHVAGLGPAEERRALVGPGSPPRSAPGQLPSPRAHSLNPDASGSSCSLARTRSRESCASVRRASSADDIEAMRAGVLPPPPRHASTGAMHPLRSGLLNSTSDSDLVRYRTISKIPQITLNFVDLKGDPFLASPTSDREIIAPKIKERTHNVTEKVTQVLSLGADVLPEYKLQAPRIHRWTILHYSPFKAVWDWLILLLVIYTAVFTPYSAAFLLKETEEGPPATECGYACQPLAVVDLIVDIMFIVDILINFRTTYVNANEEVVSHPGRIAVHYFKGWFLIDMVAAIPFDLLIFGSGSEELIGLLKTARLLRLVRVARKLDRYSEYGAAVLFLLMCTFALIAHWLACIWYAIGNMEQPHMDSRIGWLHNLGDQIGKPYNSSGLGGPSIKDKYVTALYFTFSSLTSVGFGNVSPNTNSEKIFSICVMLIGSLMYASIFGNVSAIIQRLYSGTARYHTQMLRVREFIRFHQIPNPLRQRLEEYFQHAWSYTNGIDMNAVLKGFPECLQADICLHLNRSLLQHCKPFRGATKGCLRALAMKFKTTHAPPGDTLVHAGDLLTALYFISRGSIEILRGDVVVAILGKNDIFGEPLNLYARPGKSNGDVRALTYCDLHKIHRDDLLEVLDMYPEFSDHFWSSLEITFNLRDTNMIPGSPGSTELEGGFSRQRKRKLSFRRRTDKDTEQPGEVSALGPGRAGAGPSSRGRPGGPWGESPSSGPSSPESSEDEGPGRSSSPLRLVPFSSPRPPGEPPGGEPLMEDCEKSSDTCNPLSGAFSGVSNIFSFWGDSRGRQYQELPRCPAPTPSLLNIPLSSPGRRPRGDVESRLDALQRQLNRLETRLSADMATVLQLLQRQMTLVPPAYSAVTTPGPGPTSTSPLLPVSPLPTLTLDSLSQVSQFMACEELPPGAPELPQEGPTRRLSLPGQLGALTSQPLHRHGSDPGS
Description for hERG channel: CHO-K1 cells stably expressing hERG were grown in Ham's F-12 Medium with Glutamine containing 10% heat-inactivated FBS, 1% Penicillin/Streptomycin, Hygromycin (100 μg/ml) and G418 (100 μg/ml). Cells were grown in culture flasks at 37° C. in a 5% CO2-humidified incubator.
The cells were bathed in an extracellular solution containing 140 mM NaCl, 4 mM KCl, 2 mM CaCl2), 1 mM MgCl2, 5 mM Glucose, 10 mM HEPES; pH adjusted to 7.4 with NaOH; 295-305 mOsm. The internal solution contained 50 mM KCl, 10 mM NaCl, 60 mM KF, 20 mM EGTA, 10 mM HEPES; pH adjusted to 7.2 with KOH; 285 mOsm. All compounds were dissolved in DMSO at 30 mM. Compound stock solutions were freshly diluted with external solution to concentrations of 30 nM, 100 nM, 300 nM, 1 μM, 3 μM, 10 μM, 30 μM and 100 μM. The highest content of DMSO (0.3%) was present in 100 μM.
The voltage protocol (see Table B) was designed to simulate voltage changes during a cardiac action potential with a 300 ms depolarization to +20 mV (analogous to the plateau phase of the cardiac action potential), a repolarization for 300 ms to −50 mV (inducing a tail current) and a final step to the holding potential of −80 mV. The pulse frequency was 0.3 Hz. Control (compound-free) and compound pulse trains for each compound concentration applied contained 70 pulses.
Whole cell current recordings and compound application were enabled by means of an automated patch clamp platform Patchliner (Nanion). EPC 10 patch clamp amplifier (HEKA) along with Patchmaster software (HEKA Elektronik Dr. Schulze GmbH) was used for data acquisition. Data were sampled at 10 kHz without filtering. Increasing compound concentrations were applied consecutively to the same cell without washouts in between.
AUC and PEAK values were obtained with Patchmaster (HEKA Elektronik Dr. Schulze GmbH). To determine IC50 the last single pulse in the pulse train corresponding to a given compound concentration was used. Obtained AUC and PEAK values in the presence of compound were normalized to control values in the absence of compound. Using Origin (OridinLab), IC50 was derived from data fit to Hill equation: Icompound/Icontrol=(100−A)/(1+([compound]/IC50)nH)+A, where IC50 is the concentration at which current inhibition is half-maximal, [compound] is the applied compound concentration, A is the fraction of current that is not blocked and nH is the Hill coefficient.

Broadly, the IC50 is the concentration at which inhibition is half-maximal. As for `Nc1nc(N2CCC([C@@H](N)c3cc(Cl)c(Cl)cc3O)CC2)no1` [Compound 183, 2-[(R)-amino[1-(5-amino-1,2,4-oxadiazol-3-yl)piperidin-4-yl]methyl]-4,5-dichlorophenol], the results for the IC50 against hERG channel and at Kv1.3 potassium channel were below 30 µM and below 0.5 µM, respectively.

For the compound `N[C@@H](c1cc(Cl)c(Cl)cc1O)C1CCN(C(=O)C2CNC(=O)CO2)CC1` (stereo partly drawn) [Compound 231, 6-[4-[(R)-amino(4,5-dichloro-2-hydroxyphenyl)methyl]piperidine-1-carbonyl]morpholin-3-one], the IC50 against hERG channel was above 30 µM; on Kv1.3 potassium channel, below 0.5 µM.

Take `Cn1cc(C(=O)N2CCC([C@@H](N)c3cc(Cl)c(Cl)cc3O)CC2)cn1` [Compound 203, (R)-(4-(amino(4,5-dichloro-2-hydroxyphenyl)methyl)piperidin-1-yl) (1-methyl-1H-pyrazol-4-yl)methanone]: the IC50 is below 30 µM against hERG channel and below 0.5 µM at Kv1.3 potassium channel.

Turning to `N[C@@H](c1cc(Cl)c(Cl)cc1O)C1CCN(C(=O)[C@H]2CCNC2)CC1` (single isomer, unassigned) [Compound 85], the results for the IC50 at hERG channel and at Kv1.3 potassium channel were above 30 µM and below 0.5 µM, respectively.

`N[C@@H](c1cc(Cl)c(Cl)cc1O)C1CCN(C(=O)C2CNC(=O)NC2)CC1` [Compound 275, 5-[4-[(R)-amino(4,5-dichloro-2-hydroxyphenyl)methyl]piperidine-1-carbonyl]-1,3-diazinan-2-one Trifluoroacetic Acid]: the IC50 against hERG channel is above 30 µM; on Kv1.3 potassium channel, below 0.5 µM.

On to `Cc1cc(O)c([C@H](N)C2CCN(C(=O)c3ccc4c(c3)CNC4=O)CC2)cc1Cl` [Compound 324, 5-[4-[(R)-amino(5-chloro-2-hydroxy-4-methylphenyl)methyl]piperidine-1-carbonyl]-2,3-dihydroisoindol-1-one trifluoroacetic acid], for which the IC50 against hERG channel was above 30 µM; on Kv1.3 potassium channel, below 0.5 µM.

Consider `CC(=O)N[C@H](c1cc(Cl)c(Cl)cc1O)C1CCNCC1` (single isomer, unassigned) [Compound 10], for which the figures for the IC50 against hERG channel and on Kv1.3 potassium channel were above 30 µM and below 10 µM, respectively.

In the case of `N[C@@H](c1cc(Cl)c(Cl)cc1O)C1CCN(C(=O)c2cn[nH]c2)CC1` [Compound 131, 2-[(R)-amino[1-(1H-pyrazole-4-carbonyl)piperidin-4-yl]methyl]-4,5-dichlorophenol trifluoroacetic acid], the IC50 at hERG channel is above 30 µM; on Kv1.3 potassium channel, below 0.5 µM.

Turning to `N[C@@H](c1cc(Cl)c(Cl)cc1O)C1CCN(C(=O)c2cnoc2)CC1` [Compound 205, 2-[(R)-amino[1-(1,2-oxazole-4-carbonyl)piperidin-4-yl]methyl]-4,5-dichlorophenol], the IC50 against hERG channel is above 30 µM; at Kv1.3 potassium channel, below 0.5 µM.

Turning to `Cc1cc(O)c([C@H](N)C2CCN(C(=O)c3c[nH]c(=O)c(Cl)c3)CC2)c(F)c1Cl` [Compound 264, 5-[4-[(R)-amino(3-chloro-2-fluoro-6-hydroxy-4-methylphenyl)methyl]piperidine-1-carbonyl]-3-chloro-1H-pyridin-2-one Trifluoroacetic Acid], the IC50 against hERG channel is above 30 µM; on Kv1.3 potassium channel, below 10 µM.

For `CC(C)(O)CN1CCC(C(N)c2cc(Cl)c(Cl)cc2O)CC1` (stereo not shown) [Compound 56, 2-[amino[1-(2-hydroxy-2-methylpropyl)piperidin-4-yl]methyl]-4,5-dichlorophenol Trifluoroacetic Acid], the values for the 50% inhibitory concentration (IC50) at hERG channel and on Kv1.3 potassium channel were below 30 µM and below 10 µM, respectively.

Turning to `CN1CC[C@H](C(=O)N2CCC([C@@H](N)c3cc(Cl)c(Cl)cc3O)CC2)C1` [Compound 106, (4-((R)-amino(4,5-dichloro-2-hydroxyphenyl)methyl)piperidin-1-yl)((S)-1-methylpyrrolidin-3-yl)methanone], the half-maximal inhibitory concentration (IC50) against hERG channel is above 30 µM; at Kv1.3 potassium channel, below 0.5 µM.

For `C[C@@H](N)C(=O)N1CCC([C@@H](N)c2cc(Cl)c(Cl)cc2O)CC1` (single isomer, unassigned) [Compound 69], the IC50 was above 30 µM on hERG channel and below 0.5 µM on Kv1.3 potassium channel.

For the compound `Nc1cccc(N2CCC([C@@H](N)c3cc(Cl)c(Cl)cc3O)CC2)n1` [Compound 146, (R)-2-(amino(1-(6-aminopyridin-2-yl)piperidin-4-yl)methyl)-4,5-dichlorophenol Trifluoroacetic Acid], the IC50 was below 30 µM at hERG channel and below 10 µM on Kv1.3 potassium channel.

Regarding `Cc1cc(O)c([C@H](N)C2CCN(C(=O)c3ccc(=O)[nH]c3)CC2)cc1Cl` [Compound 228, 5-[4-[(R)-amino(5-chloro-2-hydroxy-4-methylphenyl)methyl]piperidine-1-carbonyl]-1H-pyridin-2-one], the IC50 at hERG channel was above 30 µM; at Kv1.3 potassium channel, below 0.5 µM.

Take `N[C@@H](c1cc(Cl)c(Cl)cc1O)C1CCN(C(=O)[C@H]2CNCCO2)CC1` [Compound 97, (4-((R)-amino(4,5-dichloro-2-hydroxyphenyl)methyl)piperidin-1-yl)((R)-morpholin-2-yl)methanone trifluoroacetic acid]: the results for the IC50 against hERG channel and at Kv1.3 potassium channel were above 30 µM and below 0.5 µM, respectively.

For the compound `N[C@H](CO)C(=O)N1CCC([C@@H](N)c2cc(Cl)c(Cl)cc2O)CC1` [Compound 171, (2R)-2-amino-1-[4-[(R)-amino(4,5-dichloro-2-hydroxyphenyl)methyl]piperidin-1-yl]-3-hydroxypropan-1-one], the values for the IC50 against hERG channel and on Kv1.3 potassium channel were above 30 µM and below 0.5 µM, respectively.

Take `CNC(c1cc(Cl)c(Cl)cc1O)C1CCNCC1` (stereo not shown) [Compound 31, 4,5-dichloro-2-[(methylamino)(piperidin-4-yl)methyl]phenol Trifluoroacetic Acid]: the IC50 against hERG channel was above 30 µM; on Kv1.3 potassium channel it was below 10 µM.

Turning to `NC(c1cc(Cl)c(Cl)cc1O)C1CCN(c2ncco2)CC1` (stereo not shown) [Compound 74, 2-[amino[1-(1,3-oxazol-2-yl)piperidin-4-yl]methyl]-4,5-dichlorophenol], the results for the IC50 on hERG channel and on Kv1.3 potassium channel were below 30 µM and below 10 µM, respectively.

As for `COCCS(=O)(=O)N1CCC([C@@H](N)c2cc(Cl)c(Cl)cc2O)CC1` [Compound 132, 2-[(R)-amino[1-(2-methoxyethanesulfonyl)piperidin-4-yl]methyl]-4,5-dichlorophenol Trifluoroacetic Acid], the IC50 was below 30 µM against hERG channel and below 10 µM at Kv1.3 potassium channel.

`N[C@@H](c1cc(Cl)c(Cl)cc1O)C1CCN(C(=O)C2CNC(=O)OC2)CC1` (stereo partly drawn) [Compound 279, 5-[4-[(R)-amino(4,5-dichloro-2-hydroxyphenyl)methyl]piperidine-1-carbonyl]-1,3-oxazinan-2-one trifluoroacetic acid]: the IC50 at hERG channel was above 30 µM; on Kv1.3 potassium channel, below 0.5 µM.

Regarding `N[C@@H](c1cc(Cl)c(Cl)cc1O)C1CCN(C(=O)C2COCCN2)CC1` (stereo partly drawn) [Compound 144, 2-[(R)-amino[1-(morpholine-3-carbonyl)piperidin-4-yl]methyl]-4,5-dichlorophenol trifluoroacetic acid], the results for the IC50 against hERG channel and on Kv1.3 potassium channel were above 30 µM and below 10 µM, respectively.

With `N[C@@H](c1cc(Cl)c(Cl)cc1O)C1CCN(C(=O)[C@H](O)CO)CC1` (single isomer, unassigned) [Compound 119], the IC50 is above 30 µM against hERG channel and below 0.5 µM on Kv1.3 potassium channel.

As to `N[C@@H](c1cc(Cl)c(Cl)cc1O)C1CCN(C(=O)c2cccc(=O)[nH]2)CC1` [Compound 178, (R)-6-(4-(amino(4,5-dichloro-2-hydroxyphenyl)methyl)piperidine-1-carbonyl) pyridin-2(1H)-one formic acid], the IC50 is above 30 µM against hERG channel and below 0.5 µM at Kv1.3 potassium channel.

For the compound `COC[C@@H](O)C(=O)N1CCC([C@@H](N)c2cc(Cl)c(Cl)cc2O)CC1` [Compound 197, (2R)-1-[4-[(R)-amino(4,5-dichloro-2-hydroxyphenyl)methyl]piperidin-1-yl]-2-hydroxy-3-methoxypropan-1-one trifluoroacetic acid], the IC50 against hERG channel was above 30 µM; at Kv1.3 potassium channel it was below 10 µM.

Take `N[C@@H](c1cc(Cl)c(C2CC2)cc1O)C1CCN(C(=O)[C@H](O)CO)CC1` [Compound 289, (2R)-1-[4-[(R)-amino(5-chloro-4-cyclopropyl-2-hydroxyphenyl)methyl]piperidin-1-yl]-2,3-dihydroxypropan-1-one]: the IC50 is above 30 µM against hERG channel and below 0.5 µM at Kv1.3 potassium channel.

Take `NC(c1cc(Cl)c(Cl)cc1O)C1CCN(C(=O)[C@H]2CCNC2)CC1` (stereo partly drawn) [Compound 63, (4-(amino(4,5-dichloro-2-hydroxyphenyl)methyl)piperidin-1-yl)((S)-pyrrolidin-3-yl)methanone Trifluoroacetic Acid]: the IC50 was above 30 µM on hERG channel and below 0.5 µM at Kv1.3 potassium channel.

For the compound `CC(=O)NC(c1cc(Cl)c(Cl)cc1O)C1CCNCC1` (stereo not shown) [Compound 11, N-[(4,5-dichloro-2-hydroxyphenyl)(piperidin-4-yl)methyl]acetamide], the IC50 at hERG channel is above 30 µM; on Kv1.3 potassium channel, below 10 µM.

With `N[C@@H](c1cc(Cl)c(Cl)cc1O)C1CCN(C(=O)C2CNC(=O)C2)CC1` (stereo partly drawn) [Compound 223, 4-[4-[(R)-amino(4,5-dichloro-2-hydroxyphenyl)methyl]piperidine-1-carbonyl] pyrrolidin-2-one trifluoroacetic acid], the IC50 against hERG channel is above 30 µM; at Kv1.3 potassium channel it was below 0.5 µM.

Turning to `NC(c1c(O)ccc2ccccc12)C1CCNCC1` (stereo not shown) [Compound 34, 1-(amino(piperidin-4-yl)methyl)naphthalen-2-ol Trifluoroacetic Acid], the IC50 at hERG channel is above 30 µM; at Kv1.3 potassium channel, below 30 µM.

As for `NC(c1cc(Cl)c(Cl)cc1O)C1(F)CCNCC1` (stereo not shown) [Compound 59, 2-[amino(4-fluoropiperidin-4-yl)methyl]-4,5-dichlorophenol Trifluoroacetic Acid], the IC50 against hERG channel is below 30 µM; on Kv1.3 potassium channel, below 10 µM.

As to `N[C@@H](c1cc(Cl)c(Cl)cc1O)C1CCN(C(=O)[C@H]2CNC(=O)C2)CC1` (single isomer, unassigned; isomer 2) [Compound 246], the IC50 on hERG channel is above 30 µM; at Kv1.3 potassium channel, below 0.5 µM.
